The Bradley open melting point set (2014)
Several values for one entry are separate records, joined by “and”; a condition that tells them apart may be missing. Equal entries are not always repeated. Structures can show the parent of a compound that is named as a salt.

SMILES | melting point
C[C@@H]1C[C@H]2[C@@H]3CCC4=CC(=O)C=C[C@]4(C)[C@@]3(F)[C@@H](O)C[C@]2(C)[C@@]1(O)C(=O)CO [dexamethasone] | 263 °C
CCCCS(=O)CCCC [di-n-butyl sulfoxide] | 33 °C
CCCCNCCCC [di-n-butylamine] | -62 °C
CCCCCCCCCCCCSCCCCCCCCCCCC [di-n-dodecyl sulfide] | 40 °C
CCCOCCC [di-n-propyl ether] | -122 °C
C=CCSCC=C [diallyl sulfide] | -83 °C
OB(O)c1cccc2c1oc1ccccc12 [dibenzofuran-4-boronic acid] | 289 °C
c1ccc2c(c1)oc1ccccc12 [dibenzofuran] [listing 1 of 2 here] | 81 °C
c1ccc2c(c1)oc1ccccc12 [dibenzofuran] [listing 2 of 2 here] | 82 °C
O=C1c2ccccc2CCc2ccccc21 [dibenzosuberone] | 33 °C
c1ccc(CNCc2ccccc2)cc1 [dibenzylamine] | -26 °C
O=C(O)C(Cl)Cl [dichloroacetic acid] | 10 °C
C[Si](C)(Cl)Cl [dichlorodimethylsilane] | -76 °C
ClCCl [dichloromethane] | -95 °C
ClB(Cl)c1ccccc1 [dichlorophenylborane] | 7 °C
C1CCC(NC2CCCCC2)CC1 [dicyclohexylamine] | -2 °C
CCOCOCC [diethoxymethane] | -66 °C
CCOC(=O)C(NC(C)=O)C(=O)OCC [diethyl acetamidomalonate] | 98 °C
CCOC(=O)/C=CC(=O)OCC [diethyl maleate] | -11 °C
CCOC(=O)C(=O)OCC [diethyl oxalate] | -40 °C
CCOC(=O)C(C(=O)OCC)c1ccccc1 [diethyl phenylmalonate] | 16 °C
CCOC(=O)CCCCC(=O)OCC [diethyl_adipate] | -18 °C

SMILES | melting point
CCOC(=O)/C=C/C(=O)OCC [diethyl_fumarate] | 2 °C
O=C(C=C/C(=O)OCC)OCC [diethyl_maleate] | -10 °C
CCOCCOCCOCC [diethylene glycol diethyl ether] | -44 °C
CCCCOCCOCCO [diethylene glycol mono-n-butyl ether] | -68 °C
ICI [diiodomethane] | 6 °C
CC(C)OC(C)C [diisopropyl_ether] | -86 °C
CC1(C)CC(=O)CC(=O)C1 [dimedone] | 148 °C
COC(=O)c1[nH]c(C(=O)OC)c(O)c1O [dimethyl 3,4-dihydroxypyrrole-2,5-dicarboxylate] | 211 °C
COC(=O)OC [dimethyl carbonate] | 4 °C
COC(=O)/C=C/C(=O)OC [dimethyl fumarate] | 104 °C
COC(=O)CCCCCCCCC(=O)OC [dimethyl_sebacate] | 30 °C
C[SiH](C)c1ccccc1 [dimethylphenylsilane] | -124 °C
O=S(c1ccccc1)c1ccccc1 [diphenyl sulfoxide] | 71 °C
O=C(O)C(c1ccccc1)c1ccccc1 [diphenylacetic acid] | 147 °C
C(#Cc1ccccc1)c1ccccc1 [diphenylacetylene] [listing 1 of 2 here] | 63 °C
C(#Cc1ccccc1)c1ccccc1 [diphenylacetylene] [listing 2 of 2 here] | 60 °C
CCCCCCCCCCCC=O [dodecanal] | 12 °C
O=C(O)CCCCCCCCCCC(=O)O [dodecanedioic acid] | 129 °C
OC[C@@H](O)[C@H](O)[C@H](O)[C@@H](O)CO [dulcitol] | 189 °C
Clc1ccc(COC(Cn2ccnc2)c2ccc(Cl)cc2Cl)cc1 (stereo not drawn) [econazole] | 87 °C
CNC[C@H](O)c1ccc(O)c(O)c1 [epinephrine] | 212 °C
O=C1CCCCCN1 [epsilon-caprolactam] | 70 °C

SMILES | melting point
O=C1CCCCCO1 [epsilon-caprolactone] | -2 °C
O=C(O)CCCCCCC[C@H](O)[C@H](O)CCCCCCO [erythro-aleuritic acid] | 99 °C
O=Cc1cccc2c1CCOC2=O [erythrocentaurin] | 140 °C
C[C@]12CC[C@@H]3c4ccc(O)cc4CC[C@H]3[C@@H]1C[C@@H](O)[C@@H]2O [estriol] | 282 °C
C[C@]12CC[C@@H]3c4ccc(O)cc4CC[C@H]3[C@@H]1CCC2=O [estrone] [listing 1 of 2 here] | 259 °C
C[C@]12CC[C@@H]3c4ccc(O)cc4CC[C@H]3[C@@H]1CCC2=O [estrone] [listing 2 of 2 here] | 255 °C
CC [ethane] | -183 °C
CCN(CC)C(C)CN1c2ccccc2Sc2ccccc21 (stereo not drawn) [ethopropazine] | 53 °C
CCOC(=O)c1ccc(OC)c(OC)c1 [ethyl 3,4-dimethoxybenzoate] | 44 °C
CCOC(=O)C1=C(C)CC(C)=N1 [ethyl 3,5-dimethylpyrrole-2-carboxylate] | 126 °C
CCOC(=O)CCC(C)C1CCC2C3C(O)C(Br)C4CC(OC(C)=O)CCC4(C)C3CC(OC(C)=O)C12C (stereo not drawn) [ethyl 3,12-bis(acetyloxy)-6-bromo-7-hydroxycholan-24-oate] | 166 °C
CCOC(=O)CCC(C)C1CCC2C3C=CC4CC(OC(C)=O)CCC4(C)C3CC(OC(C)=O)C12C (stereo not drawn) [ethyl 3,12-bis(acetyloxy)chol-6-en-24-oate] | 84 °C
CCOC(=O)c1cc(-c2ccco2)n[nH]1 [ethyl 3-(2-furyl)-1h-pyrazole-5-carboxylate] | 136 °C
CCOC(=O)/C=C/N(C)C [ethyl 3-(dimethylamino)acrylate] | 18 °C
CCOC(=O)/C=C(/C)N [ethyl 3-aminocrotonate] | 32 °C
CCOCCC(=O)OCC [ethyl 3-ethoxypropionate] | -100 °C
CCOC(=O)C1=CN=NC1C (stereo not drawn) [ethyl 3-methyl-1H-pyrazole-4-carboxylate] | 137 °C
CCOC(=O)n1ccn(C)c1=S [ethyl 3-methyl-2-thionoimidazoline-1-carboxylate] | 124 °C
CCOC(=O)c1ccc(N)cc1 [ethyl 4-aminobenzoate] | 90 °C
CCOC(=O)Cc1ccc(O)cc1 [ethyl 4-hydroxyphenylacetate] | 37 °C
CCOC(=O)c1ccc([N+](=O)[O-])o1 [ethyl 5-nitro-2-furoate] | 100 °C
CCOC(C)=O [ethyl acetate] | -84 °C

SMILES | melting point
CCOC(=O)CC(C)=O [ethyl acetoacetate] | -43 °C
C=CC(=O)OCC [ethyl acrylate] | -71 °C
CCOC(=O)c1ccccc1 [ethyl benzoate] | -34 °C
CCCC(=O)OCC [ethyl butyrate] | -93 °C
CCOC(=O)C(C#N)=NO [ethyl isonitrosocyanoacetate] | 130 °C
CCOC(=O)c1ccccn1 [ethyl picolinate] | 2 °C
CCOC(=O)C1c2ccccc2Oc2ccccc21 [ethyl xanthene-9-carboxylate] | 67 °C
CCOC(=O)c1ccc([N+](=O)[O-])cc1 [ethyl_4-nitrobenzoate] | 58 °C
CCOC(=O)CC(C)=O [ethyl_acetoacetate] | -43 °C
CCCC(=O)OCC [ethyl_butyrate] | -93 °C
CCOC=O [ethyl_formate] | -80 °C
CCCCCCC(=O)OCC [ethyl_heptanoate] | -66 °C
CCOC(=O)c1cccc(C#N)c1 [ethyl_m-cyanobenzoate] | 56 °C
C=C [ethylene] | -169 °C
CC(=O)OCCOC(C)=O [ethylene_glycol_diacetate] | -41 °C
N#Cc1ccc(C2CCCc3cncn32)cc1 (stereo not drawn) [fadrozole] | 117 °C
N=C(N)Nc1nc(CSCCC(=N)NS(N)(=O)=O)cs1 [famotidine] | 164 °C
NC(=O)OCC(COC(N)=O)c1ccccc1 [felbamate] | 151 °C
O=C(O)Cc1ccccc1Oc1ccc(Cl)cc1Cl [fenclofenac] | 135 °C
O=C(O)c1ccccc1Nc1cccc(C(F)(F)F)c1 [flufenamic acid] | 125 °C
c1ccc2c(c1)Cc1ccccc1-2 [fluorene] | 116 °C and 115 °C
O=C1OC2(OC=C(c3ccccc3)C2=O)c2ccccc21 (stereo not drawn) [fluorescamine] | 157 °C

SMILES | melting point
O=c1[nH]cc(F)c(=O)[nH]1 [fluorouracil] | 282 °C
CC(C(=O)O)c1ccc(-c2ccccc2)c(F)c1 (stereo not drawn) [flurbiprofen] | 111 °C (2×) and 115 °C and 110 °C
O=C1CN=C(c2ccccc2F)c2cc(Cl)ccc2N1CC1CC1 [flutoprazepam] | 118 °C
NC=O [formamide] | 2 °C
NNC=O [formic acid hydrazide] | 57 °C
c1ccoc1 [furan] | -85 °C
O=Cc1ccco1 [furfuraldehyde] | -36.5 °C
NS(=O)(=O)c1cc(C(=O)O)c(NCc2ccco2)cc1Cl [furosemide] | 206 °C (2×) and 208 °C and 204 °C (2×)
Cl[C@H]1[C@H](Cl)[C@@H](Cl)[C@@H](Cl)[C@H](Cl)[C@H]1Cl [g-bhc(lindane)] | 112 °C
Cc1ccc(C)c(OCCCC(C)(C)C(=O)O)c1 [gemfibrozil] | 61 °C
CC(C)=CCC/C(C)=C/CO [geraniol] | -15 °C
Cc1cc(C(=O)NCCc2ccc(S(=O)(=O)NC(=O)NN3CCCCCC3)cc2)no1 [glisoxepid] | 189 °C
O=CCCCC=O [glutaraldehyde] | -21 °C
CC(=O)OCC(COC(C)=O)OC(C)=O [glycerol triacetate] | 3 °C
OCC(O)CO [glycerol] | 18 °C
O=CC=O [glyoxal] | 15 °C
COC1=CC(=O)C[C@@H](C)[C@]12Oc1c(Cl)c(OC)cc(OC)c1C2=O [griseofulvin] | 219 °C
COc1cc(OC)c2c(c1Cl)O[C@]1(C2=O)C(OC)CC(=O)C[C@H]1C (stereo partly drawn) [griseofulvin] | 220 °C
O=C1CN=C(c2ccccc2)c2cc(Cl)ccc2N1CC(F)(F)F [halazepam] | 164 °C
O=C(CCCN1CCC(O)(c2ccc(Cl)cc2)CC1)c1ccc(F)cc1 [haloperidol] | 148 °C
